Tests used:
[1] = tested on: STEME; experiment: Pre-emergence herbicidal action against STEME; assay type: in vivo, Stellaria media
Source text: Seeds of monocotyledonous and dicotyledonous weed plants and crop plants are laid out in sandy loam soil in wood-fiber pots and covered with soil. The compounds of the invention, formulated in the form of wettable powders (WP) or as emulsion concentrates (EC), are then applied to the surface of the covering soil in the form of an aqueous suspension or emulsion at a water application rate equivalent to 600 to 800 l/ha, with addition of 0.2% wetting agent. After the treatment, the pots are placed in a greenhouse and kept under good growth conditions for the trial plants. The damage to the test plants is scored visually after a test period of 3 weeks by comparison with untreated controls (herbicidal activity in percent (%): 100% activity=the plants have died, 0% activity=like control plants). […] The tables below illustrate, in an illustrative manner, the post-emergence herbicidal action of the compounds of the invention, the herbicidal activity being stated in percent.

[2] = tested on: AMARE; experiment: Post-emergence herbicidal action against AMARE; assay type: in vivo, Amaranthus retroflexus; conditions: 20 g/ha, visual assessment about 3 weeks after treatment, 100% = plants have died, 0% = like control plants
How it was run: (§1)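 Sandy loam, greenhouse; treatment 2–3 weeks after sowing, one-leaf stage. Aqueous suspension or emulsion from WP/EC sprayed on foliage (600–800 l/ha, 0.2% wetting agent). Readout: visual % action, ~3 weeks.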

[3] = tested on: AMARE; experiment: Pre-emergence herbicidal action against AMARE; assay type: in vivo, Amaranthus retroflexus
How it was run: (§2)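 Seeds sown in sandy loam, soil-covered; compound sprayed on soil surface pre-emergence. Application: WP/EC, 600–800 l/ha, 0.2% wetting agent. Readout: visual % damage at 3 weeks.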

[4] = tested on: MATIN; experiment: Pre-emergence herbicidal action against MATIN; assay type: in vivo, Matricaria inodora
How it was run: as §2

[5] = tested on: ABUTH; experiment: Post-emergence herbicidal action against ABUTH; assay type: in vivo, Abutilon theophrasti; conditions: visual assessment about 3 weeks after treatment vs untreated controls
How it was run: as §1

[6] = tested on: DIGSA; experiment: Post-emergence herbicidal action against DIGSA; assay type: in vivo, Digitaria sanguinalis; conditions: for Post-emergence action against DIGSA in %: 5 g/ha; for Post-emergence action against DIGSA: 20 g/ha
How it was run: as §1

[7] = tested on: STEME; experiment: Post-emergence herbicidal action against STEME; assay type: in vivo, Stellaria media
Protocol: Seeds of monocotyledonous and dicotyledonous weed and crop plants are laid out in sandy loam soil in wood-fiber pots, covered with soil and cultivated in a greenhouse under good growth conditions. 2 to 3 weeks after sowing, the test plants are treated at the one-leaf stage. The compounds of the invention, formulated in the form of wettable powders (WP) or as emulsion concentrates (EC), are then sprayed onto the green parts of the plants in the form of an aqueous suspension or emulsion at a water application rate equivalent to 600 to 800 l/ha, with addition of 0.2% wetting agent. After the test plants have been left to stand in the greenhouse under optimal growth conditions for about 3 weeks, the action of the preparations is assessed visually in comparison to untreated controls (herbicidal action in percent (%): 100% activity=the plants have died, 0% activity=like control plants). […] The tables below illustrate, in an illustrative manner, the post-emergence herbicidal action of the compounds of the invention, the herbicidal activity being stated in percent.

[8] = tested on: DIGSA; experiment: Pre-emergence herbicidal action against DIGSA; assay type: in vivo, Digitaria sanguinalis
How it was run: as §2

[9] = tested on: ABUTH; experiment: Pre-emergence herbicidal action against ABUTH; assay type: in vivo, Abutilon theophrasti; conditions: for Pre-emergence action against ABUTH (herbicidal activity): 80 g/ha, scored visually after 3 weeks vs untreated controls (100% = plants have died, 0% = like control plants); for Pre-emergence action against ABUTH (herbicidal activity in percent): dosage 20 g/ha, scored visually after 3 weeks vs untreated controls, 100% = plants have died, 0% = like control plants
How it was run: as §2

[10] = tested on: SETVI; experiment: Post-emergence herbicidal action against SETVI; assay type: in vivo, Setaria viridis
How it was run: as §1

[11] = tested on: POLCO; experiment: Pre-emergence herbicidal action against POLCO; assay type: in vivo, Polygonum convolvulus; conditions: dosage 80 g/ha
How it was run: as §2

[12] = tested on: ECHCG; experiment: Pre-emergence herbicidal action against ECHCG; assay type: in vivo, Echinochloa crus-galli; conditions: 80 g/ha
How it was run: as §2

[13] = tested on: MATIN; experiment: Post-emergence herbicidal action against MATIN; assay type: in vivo, Matricaria inodora; conditions: dosage 20 g/ha
How it was run: as §1

[14] = tested on: ALOMY; experiment: Post-emergence herbicidal action against ALOMY; assay type: in vivo, Alopecurus myosuroides; conditions: dosage 20 g/ha, visual assessment about 3 weeks after treatment vs untreated controls
How it was run: as §1

[15] = tested on: PHBPU; experiment: Post-emergence herbicidal action against PHBPU; assay type: in vivo, Pharbitis purpurea
How it was run: as §1

[16] = tested on: VERPE; experiment: Post-emergence herbicidal action against VERPE; assay type: in vivo, Veronica persica; conditions: 20 g/ha
How it was run: as §1

[17] = tested on: VERPE; experiment: Pre-emergence herbicidal action against VERPE; assay type: in vivo, Veronica persica; conditions: dosage 80 g/ha
How it was run: as §2

[18] = tested on: ECHCG; experiment: Post-emergence herbicidal action against ECHCG; assay type: in vivo, Echinochloa crus-galli
How it was run: as §1

[19] = tested on: VIOTR; experiment: Pre-emergence herbicidal action against VIOTR; assay type: in vivo, Viola tricolor
How it was run: as §2

[20] = tested on: AVEFA; experiment: Pre-emergence herbicidal action against AVEFA; assay type: in vivo, Avena fatua; conditions: 80 g/ha, pre-emergence
How it was run: as §2

[21] = tested on: VIOTR; experiment: Post-emergence herbicidal action against VIOTR; assay type: in vivo, Viola tricolor
How it was run: as §1

[22] = tested on: SETVI; experiment: Pre-emergence herbicidal action against SETVI; assay type: in vivo, Setaria viridis; conditions: dosage 80 g/ha
How it was run: as §2

[23] = tested on: ALOMY; experiment: Pre-emergence herbicidal action against ALOMY; assay type: in vivo, Alopecurus myosuroides; conditions: 80 g/ha, pre-emergence, scored visually after 3 weeks vs untreated controls (100% = plants have died, 0% = like control plants)
How it was run: as §2

[24] = 20 g/ha, scored visually after 3 weeks vs untreated controls, 100% = plants have died, 0% = like control plants
[25] = 80 g/ha, scored visually after 3 weeks vs untreated controls (100% = plants have died, 0% = like control plants)

| SMILES | Pre-emergence action against STEME in % ([1]; dosage 80 g/ha) [%] | Post-emergence action at 20 g/ha against AMARE in % [2] [%] | Pre-emergence action against AMARE in % [3, 24] [%] | Pre-emergence action against AMARE in % [3, 25] [%] | Pre-emergence action against MATIN in % ([4]; dosage 80 g/ha) [%] | Post-emergence action against ABUTH in % ([5]; dosage 5 g/ha) [%] | Post-emergence action against ABUTH in % ([5]; dosage 20 g/ha) [%] | Post-emergence action against DIGSA in % [6] [%] | Post-emergence action against DIGSA [6] [%] | Post-emergence action against STEME in % ([7]; 20 g/ha) [%] | Pre-emergence action against DIGSA in % ([8]; dosage 20 g/ha) [%] | Pre-emergence action against DIGSA in % ([8]; dosage 80 g/ha) [%] | Pre-emergence action against ABUTH (herbicidal activity) [9] [%] | Post-emergence action against SETVI in % ([10]; dosage 20 g/ha) [%] | Pre-emergence action against ECHCG in % [12] [%] | Pre-emergence action against STEME in % ([1]; dosage 20 g/ha) [%] | Post-emergence action against ALOMY in % [14] [%] | Pre-emergence action against MATIN in % ([4]; dosage 20 g/ha) [%] | Post-emergence action against STEME in % ([7]; dosage 5 g/ha) [%] | Post-emergence action against ECHCG in % ([18]; dosage 5 g/ha) [%] | other results |
| --- | --- | --- | --- | --- | --- | --- | --- | --- | --- | --- | --- | --- | --- | --- | --- | --- | --- | --- | --- | --- | --- |
| CCNC(=O)c1c(C(F)F)ccc(C(=O)Nc2nnc(C)o2)c1C [Example 6-32] | 90 | 100 | 80 | 100 | 90 | 80 | 80 | 80 | 80 | 80 | 90 | 100 | 80 | 80 | 90 | – | – | – | – | – | Pre-emergence action against POLCO in % [11]: 80% |
| CNC(=O)c1c(C(F)(F)F)ccc(C(=O)Nc2nnco2)c1SC [Example 5-58] | 100 | 90 | 100 | 100 | 100 | 90 | 90 | 90 | 100 | 90 | 90 | 100 | 100 | 100 | 90 | 100 | 80 | 90 | 90 | 80 | Post-emergence action against MATIN in % [13]: 80%; Post-emergence action against PHBPU in % ([15]; dosage 5 g/ha): 80%; Post-emergence action against PHBPU in % ([15]; dosage 20 g/ha): 90%; Post-emergence action against VERPE in % [16]: 80%; Pre-emergence action against VERPE in % [17]: 80%; Post-emergence action against ECHCG in % ([18]; dosage 20 g/ha): 90%; Pre-emergence action against VIOTR in % ([19]; dosage 20 g/ha): 90%; Pre-emergence action against VIOTR in % ([19]; dosage 80 g/ha): 100%; Pre-emergence action against AVEFA in % [20]: 80%; Pre-emergence action against ABUTH (herbicidal activity in percent) [9]: 90%; Post-emergence action against SETVI in % ([10]; dosage 5 g/ha): 80%; Post-emergence action against VIOTR in % ([21]; 5 g/ha): 80%; Post-emergence action against VIOTR in % ([21]; 20 g/ha): 80%; Pre-emergence action against SETVI in % [22]: 100% |
| CCc1c(C(=O)Nc2nnc(C)o2)ccc(C(F)(F)F)c1C(=O)NC1CC1 [Example 6-212] | 90 | 90 | 90 | 90 | 90 | 80 | 90 | 80 | 90 | 90 | 100 | 100 | 90 | 80 | 90 | 80 | 80 | 80 | 80 | 90 | Post-emergence action against ECHCG in % ([18]; dosage 20 g/ha): 90%; Pre-emergence action against ABUTH (herbicidal activity in percent) [9]: 80%; Pre-emergence action against ALOMY (herbicidal activity) [23]: 80%; Pre-emergence action against SETVI in % [22]: 90% |
| CCn1nnnc1NC(=O)c1ccc(S(C)(=O)=O)c(C(=O)NC2CC2)c1Cl [Example 2-125] | 100 | 80 | 80 | 100 | 100 | – | – | – | – | 80 | – | – | 100 | – | – | 80 | – | 80 | – | – | Pre-emergence action against VIOTR in % ([19]; dosage 80 g/ha): 100%; Pre-emergence action against AVEFA in % [20]: 100%; Post-emergence action against VIOTR in % ([21]; 5 g/ha): 100%; Post-emergence action against VIOTR in % ([21]; 20 g/ha): 100% |
